Laboratory results: the supplement of paper PMC10307832

Columns and labels:
Experiment in all cases: relative viability (nuclei count vs DMSO), 5 days (fraction); higher = more cells survive
Vemurafenib + Alpelisib = compound: CCCS(=O)(=O)Nc1ccc(F)c(C(=O)c2c[nH]c3ncc(-c4ccc(Cl)cc4)cc23)c1F [Vemurafenib] + Cc1nc(NC(=O)N2CCC[C@H]2C(N)=O)sc1-c1ccnc(C(C)(C)C(F)(F)F)c1 [Alpelisib] (partner 2 µM)
How it was run: (§1)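 Lung cancer cell lines in 1536-well plates got either a single drug or a fixed anchor-drug dose together with five library-drug doses (not always all listed) in √10 steps, by pin tool, on the day after seeding. Nuclei were counted after 5 days, and relative viability is the treated-to-vehicle ratio of nuclei counts. Values are medians of duplicate plates.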

OSI-027 + Pictilisib = compound: COc1cccc2cc(-c3nc([C@H]4CC[C@H](C(=O)O)CC4)n4ncnc(N)c34)[nH]c12 [OSI-027] + CS(=O)(=O)N1CCN(Cc2cc3nc(-c4cccc5[nH]ncc45)nc(N4CCOCC4)c3s2)CC1 [Pictilisib] (partner 1 µM)
How it was run: as §1

Alpelisib + Trametinib = compound: Cc1nc(NC(=O)N2CCC[C@H]2C(N)=O)sc1-c1ccnc(C(C)(C)C(F)(F)F)c1 [Alpelisib] + CC(=O)Nc1cccc(-n2c(=O)n(C3CC3)c(=O)c3c(Nc4ccc(I)cc4F)n(C)c(=O)c(C)c32)c1 [Trametinib] (partner 0.02 µM)
How it was run: as §1

Alpelisib + Pemetrexed = compound: Cc1nc(NC(=O)N2CCC[C@H]2C(N)=O)sc1-c1ccnc(C(C)(C)C(F)(F)F)c1 [Alpelisib] + Nc1nc2[nH]cc(CCc3ccc(C(=O)N[C@@H](CCC(=O)O)C(=O)O)cc3)c2c(=O)[nH]1 [Pemetrexed] (partner 0.2 µM)
How it was run: as §1

Cell Line | relative viability (Vemurafenib + Alpelisib; first compound 0.03162 µM) | relative viability (Vemurafenib + Alpelisib; first compound 0.1 µM) | relative viability (Vemurafenib + Alpelisib; first compound 0.3162 µM) | relative viability (Vemurafenib + Alpelisib; first compound 1 µM) | relative viability (OSI-027 + Pictilisib; first compound 0.01 µM) | relative viability (OSI-027 + Pictilisib; first compound 0.03162 µM) | relative viability (OSI-027 + Pictilisib; first compound 0.1 µM) | relative viability (OSI-027 + Pictilisib; first compound 0.3162 µM) | relative viability (OSI-027 + Pictilisib; first compound 1 µM) | relative viability (Alpelisib + Trametinib; first compound 0.04 µM) | relative viability (Alpelisib + Trametinib; first compound 0.1265 µM) | relative viability (Alpelisib + Trametinib; first compound 0.4 µM) | relative viability (Alpelisib + Trametinib; first compound 1.265 µM) | relative viability (Alpelisib + Trametinib; first compound 4 µM) | relative viability (Alpelisib + Pemetrexed; first compound 0.04 µM) | relative viability (Alpelisib + Pemetrexed; first compound 0.1265 µM) | relative viability (Alpelisib + Pemetrexed; first compound 0.4 µM) | relative viability (Alpelisib + Pemetrexed; first compound 1.265 µM) | relative viability (Alpelisib + Pemetrexed; first compound 4 µM)
NCI-H1792 | 0.624 | 0.673 | 0.61 | 0.693 | 0.288 | 0.166 | 0.213 | 0.161 | 0.232 | 0.271 | 0.383 | 0.467 | 0.324 | 0.314 | 0.897 | 0.479 | 0.992 | 0.688 | 0.462
NCI-H1793 | 0.659 | – | 0.758 | 0.808 | 0.421 | 0.329 | 0.276 | 0.222 | 0.179 | 0.424 | 0.289 | 0.536 | 0.406 | 0.39 | 0.879 | 0.855 | 0.977 | 0.614 | 0.596
NCI-H1915 | 1.02 | 1.04 | 1.03 | 0.993 | 0.947 | 0.988 | 0.78 | 0.716 | 0.572 | 0.307 | 0.304 | 0.312 | 0.285 | 0.26 | 0.498 | 0.527 | 0.525 | 0.49 | 0.428
NCI-H1944 | 0.811 | 0.572 | 0.85 | 0.837 | 0.369 | 0.349 | 0.32 | 0.287 | 0.247 | 0.354 | 0.425 | 0.4 | 0.313 | 0.275 | 0.596 | 0.695 | 0.677 | 0.5 | 0.502
NCI-H1975 | 0.582 | 0.608 | 0.526 | 0.629 | 0.279 | 0.236 | 0.312 | 0.178 | 0.218 | 0.364 | 0.315 | 0.317 | 0.258 | 0.177 | 0.298 | 0.293 | 0.294 | 0.285 | 0.279
NCI-H1993 | 0.62 | – | 0.585 | 0.647 | 0.808 | 0.906 | 0.86 | 0.798 | 0.691 | 0.539 | 0.477 | 0.5 | 0.483 | 0.49 | 0.606 | 0.544 | 0.571 | 0.545 | 0.432
NCI-H2009 | 1.16 | 1.1 | 1.02 | 1.11 | 0.885 | 0.729 | 0.7 | 0.46 | 0.405 | 0.264 | 0.276 | 0.28 | 0.285 | 0.224 | 0.987 | 1.03 | 1.08 | 1.01 | 0.968
NCI-H2023 | 0.614 | 0.524 | 0.749 | 0.538 | 0.23 | 0.229 | 0.181 | 0.155 | 0.0973 | 0.532 | 0.452 | 0.538 | 0.287 | 0.208 | 0.214 | 0.221 | 0.219 | 0.181 | 0.185
